Results on 13 compounds are retold here after PubChem BioAssay AID328 (DTP/NCI, 2004).

Where “and” joins values, the source holds several entries; their conditions need not be identical. Identical values can stand only once. Toxic doses and inconclusive results are not listed.

The test deals with BDF1 mice, P388 leukemia ip, median survival T/C. The experiment in a line: NCI In Vivo Anticancer Drug Screen. Data for tumor model P388 Leukemia (intraperitoneal) in B6D2F1 (BDF1) mice. The settings on record: endpoint: median survival time, higher = longer survival. The method, boiled down: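 Compound-treated tumour-bearing mice were compared with vehicle-treated controls. Survival was recorded, and the value is the treated-group measurement divided by the control-group measurement (T/C).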

The mark [1] stands for this setting: dose: 25.0 mg/kg/injection, schedule: Q01DX009 (ip), vehicle: saline with Tween-80.
[2] abbreviates: dose: 100.0 mg/kg/injection, schedule: Q04DX003 (ip), vehicle: Klucel (hydroxypropylcellulose) (HPC).
Setting [3] is: dose: 200.0 mg/kg/injection, schedule: Q04DX003 (ip), vehicle: Klucel (hydroxypropylcellulose) (HPC).
The mark [4] stands for this setting: dose: 400.0 mg/kg/injection, schedule: Q04DX003 (ip), vehicle: Klucel (hydroxypropylcellulose) (HPC).
[5] abbreviates: dose: 50.0 mg/kg/injection, schedule: Q01DX001 (ip), vehicle: saline sonified.
The mark [6] stands for this setting: dose: 100.0 mg/kg/injection, schedule: Q01DX001 (ip), vehicle: saline sonified.
The mark [7] stands for this setting: dose: 0.12 mg/kg/injection, schedule: Q01DX009 (ip), vehicle: saline.
The mark [8] stands for this setting: dose: 0.25 mg/kg/injection, schedule: Q01DX009 (ip), vehicle: saline.
[9] abbreviates: dose: 0.5 mg/kg/injection, schedule: Q01DX009 (ip), vehicle: saline.
Where [10] appears, read: dose: 50.0 mg/kg/injection, schedule: Q01DX009 (ip), vehicle: saline with Tween-80.
Setting [11] is: dose: 50.0 mg/kg/injection, schedule: Q04DX003 (ip), vehicle: Klucel (hydroxypropylcellulose) (HPC).
Setting [12] is: dose: 100.0 mg/kg/injection, schedule: Q01DX009 (ip), vehicle: saline with Tween-80.
Setting [13] is: dose: 100.0 mg/kg/injection, schedule: Q01DX001 (ip), vehicle: Klucel (hydroxypropylcellulose) (HPC).
[14] abbreviates: dose: 200.0 mg/kg/injection, schedule: Q01DX001 (ip), vehicle: Klucel (hydroxypropylcellulose) (HPC).
Where [15] appears, read: dose: 400.0 mg/kg/injection, schedule: Q01DX001 (ip), vehicle: Klucel (hydroxypropylcellulose) (HPC).

In the case of `BrCC[N+]12CC[N+](CCBr)(CC1)C2`, the T/C was 112 % of control (dose: 12.5 mg/kg/injection, schedule: Q01DX009 (ip), vehicle: saline with Tween-80); 105 % of control under setting [1]; 110 % of control (dose: 25.0 mg/kg/injection, schedule: Q04DX003 (ip), vehicle: water); 116 % of control (dose: 50.0 mg/kg/injection, schedule: Q04DX003 (ip), vehicle: water); 172 % of control (dose: 400.0 mg/kg/injection, schedule: Q04DX003 (ip), vehicle: water).

On to `Cc1ccc(NS(=O)(=O)c2ccc(F)cc2)c(C)c1`, for which the T/C was 100 % of control under setting [2], 100 % of control under setting [3] and 100 % of control under setting [4].

As for `Cc1cc(=O)[nH]c2c1CCCCC2`, the T/C by setting is: under setting [5], 104 % of control; under setting [6], 95 % of control.

On to `CCOC(=O)CN1C=C(C(=O)c2cc3ccccc3n2S(=O)(=O)c2ccccc2)CCC1`, for which the T/C reads like this: (dose: 0.05 mg/kg/injection, schedule: Q01DX009 (ip), vehicle: saline) 104 % of control; (dose: 0.06 mg/kg/injection, schedule: Q01DX009 (ip), vehicle: saline) 105 % of control and 115 % of control; (dose: 0.1 mg/kg/injection, schedule: Q01DX009 (ip), vehicle: saline) 106 % of control; under setting [7], 150 % of control; (dose: 0.13 mg/kg/injection, schedule: Q01DX009 (ip), vehicle: saline) 88 % of control; (dose: 0.2 mg/kg/injection, schedule: Q01DX009 (ip), vehicle: saline) 114 % of control. Besides, the T/C reads like this: under setting [8], 105 % of control and 110 % of control; under setting [9], 115 % of control; (dose: 1.0 mg/kg/injection, schedule: Q01DX009 (ip), vehicle: saline) 100 % of control; (dose: 2.0 mg/kg/injection, schedule: Q01DX009 (ip), vehicle: saline) 99 % of control and 105 % of control; (dose: 4.0 mg/kg/injection, schedule: Q01DX009 (ip), vehicle: saline) 121 % of control; (dose: 8.0 mg/kg/injection, schedule: Q01DX009 (ip), vehicle: saline) 104 % of control. Further, the T/C (dose: 16.0 mg/kg/injection, schedule: Q01DX009 (ip), vehicle: saline) is 109 % of control and the T/C (dose: 32.0 mg/kg/injection, schedule: Q01DX009 (ip), vehicle: saline) is 106 % of control.

Take `CCN1CSC(=S)N(CC)C1`: the T/C by setting is: (dose: 12.5 mg/kg/injection, schedule: Q01DX009 (ip), vehicle: Klucel (hydroxypropylcellulose) (HPC)) 110 % of control; (dose: 25.0 mg/kg/injection, schedule: Q01DX009 (ip), vehicle: Klucel (hydroxypropylcellulose) (HPC)) 110 % of control; under setting [1], 109 % of control; (dose: 25.0 mg/kg/injection, schedule: Q04DX003 (ip), vehicle: Klucel (hydroxypropylcellulose) (HPC)) 95 % of control; (dose: 37.5 mg/kg/injection, schedule: Q01DX009 (ip), vehicle: saline with Tween-80) 109 % of control; (dose: 50.0 mg/kg/injection, schedule: Q01DX009 (ip), vehicle: Klucel (hydroxypropylcellulose) (HPC)) 110 % of control. Besides, the T/C by setting is: under setting [10], 109 % of control; under setting [11], 87 % of control; (dose: 75.0 mg/kg/injection, schedule: Q01DX009 (ip), vehicle: saline with Tween-80) 119 % of control; under setting [12], 122 % of control.

With `CCOC(=O)C(C1=NC(C)(C)CC(C)O1)C1CCCCC1` (stereo not drawn), the T/C by setting is: under setting [5], 120 % of control; under setting [6], 110 % of control; (dose: 200.0 mg/kg/injection, schedule: Q01DX001 (ip), vehicle: saline sonified) 105 % of control.

Take `Nc1n[nH]c(=S)n1-c1ccccc1`: the T/C was 104 % of control under setting [13]; 95 % of control (dose: 100.0 mg/kg/injection, schedule: Q01DX009 (ip), vehicle: Klucel (hydroxypropylcellulose) (HPC)); 95 % of control under setting [14]; 91 % of control (dose: 200.0 mg/kg/injection, schedule: Q01DX009 (ip), vehicle: Klucel (hydroxypropylcellulose) (HPC)); 90 % of control under setting [15]; 104 % of control (dose: 400.0 mg/kg/injection, schedule: Q01DX009 (ip), vehicle: Klucel (hydroxypropylcellulose) (HPC)).

Consider `COc1cc2ccc3c(c2cc1OC)CN(Cc1ccccc1)CC3`, for which the T/C runs as follows: under setting [2], 100 % of control; under setting [3], 109 % of control; under setting [4], 100 % of control.

As for `Cc1cc(Oc2ccc(Cl)cc2NC(=O)Nc2cccc(C(F)(F)F)c2)cc(S(=O)(=O)O)c1Cl`, the T/C runs as follows: (dose: 25.0 mg/kg/injection, schedule: Q01DX001 (ip), vehicle: other) 100 % of control; (dose: 50.0 mg/kg/injection, schedule: Q01DX001 (ip), vehicle: other) 108 % of control; (dose: 100.0 mg/kg/injection, schedule: Q01DX001 (ip), vehicle: other) 100 % of control.

`COc1ccc2c(c1)CCC1(C)C2=CC(=O)/C1=C\[O-].COc1ccc2c(c1)CCC1(C)C2=CC(=O)/C1=C\[O-].[Cu+2]` (stereo not drawn): the T/C by setting is: under setting [1], 95 % of control; under setting [10], 95 % of control; under setting [12], 95 % of control.

As to `CCN1C(=O)c2ccccc2C1=O`, the T/C runs as follows: under setting [11], 104 % of control; under setting [13], 104 % of control; under setting [2], 118 % of control; under setting [14], 108 % of control; under setting [3], 100 % of control; under setting [15], 104 % of control.

Regarding `Cc1cccc(C)c1NC(=O)c1ccccc1Cl`, the T/C was 113 % of control (dose: 100.0 mg/kg/injection, schedule: Q04DX003 (ip), vehicle: saline with Tween-80); 109 % of control (dose: 200.0 mg/kg/injection, schedule: Q04DX003 (ip), vehicle: saline with Tween-80); 104 % of control (dose: 400.0 mg/kg/injection, schedule: Q04DX003 (ip), vehicle: saline with Tween-80).

On to `CC[C@](C)(O)C(=O)O[C@H]1C(=O)O[C@@H]2C[C@H]3C(C)=CC(=O)[C@@H](O)[C@]3(C)[C@H]3[C@@]4(O)OC[C@]32[C@@H]1[C@@H](C)[C@H]4O`, for which the T/C (dose: 0.06 mg/kg/injection, schedule: Q01DX009 (ip), vehicle: saline with Tween-80) is 100 % of control; the T/C (dose: 0.07 mg/kg/injection, schedule: Q01DX010 (ip), vehicle: saline) is 105 % of control; the T/C (dose: 0.12 mg/kg/injection, schedule: Q01DX009 (ip), vehicle: saline with Tween-80) is 100 % of control; the T/C under setting [7] is 100 % of control; the T/C (dose: 0.15 mg/kg/injection, schedule: Q01DX010 (ip), vehicle: saline) was 95 % of control; the T/C (dose: 0.2 mg/kg/injection, schedule: Q01DX010 (ip), vehicle: saline) was 100 % of control. Besides, the T/C was 108 % of control under setting [8]; 177 % of control (dose: 0.25 mg/kg/injection, schedule: Q01DX010 (ip), vehicle: steriod suspending solution); 109 % of control and 110 % of control (dose: 0.3 mg/kg/injection, schedule: Q01DX010 (ip), vehicle: saline); 104 % of control (dose: 0.44 mg/kg/injection, schedule: Q01DX010 (ip), vehicle: saline); 104 % of control under setting [9]; 231 % of control (dose: 0.5 mg/kg/injection, schedule: Q01DX010 (ip), vehicle: steriod suspending solution). The T/C is, setting by setting: (dose: 0.51 mg/kg/injection, schedule: Q01DX009 (ip), vehicle: saline with Tween-80) 161 % of control; (dose: 0.6 mg/kg/injection, schedule: Q01DX010 (ip), vehicle: saline) 150 % of control; (dose: 0.64 mg/kg/injection, schedule: Q01DX009 (ip), vehicle: saline with Tween-80) 171 % of control; (dose: 0.66 mg/kg/injection, schedule: Q01DX010 (ip), vehicle: saline) 122 % of control; (dose: 1.0 mg/kg/injection, schedule: Q01DX009 (ip), vehicle: saline + alcohol) 87 % of control.
